The record followed here is patent publication US12091423B2, “Substituted 3,4,12,12a-tetrahydro-1H-[1,4]oxazino[3,4-c]pyrido[2,1-f][1,2,4]triazine-6,8-dione, pharmaceutical composition, method for the production and use thereof” (VIRIOM, INC., priority 2019, dated 2024).

The subject of this experiment is influenza A/Perth/265/2009 (H1N1pdm09) (H275Y). It counts as cell-based, influenza A virus.

The structures appear in SMILES notation. pEC50: −log10 of the molar value.

In general, pEC50 refers to the negative decadic logarithm of the EC50, by convention in mol/L. High values mean a low EC50, low ones a high EC50. Turning to `O=C1c2c(O)c(=O)ccn2N([C@@H]2c3ccc(F)c(F)c3CSc3ccsc32)[C@@H]2COCCN12` [1.3.2, (12aR)-7-hydroxy-12-[(10R)-6,7-difluoro-5,10-dihydrothieno[3,2-c][2]benzothiepin-10-yl]-3,4,12,12a-tetrahydro-1H-[1,4]oxazino[3,4-c]pyrido[2,1-f][1,2,4]triazine-6,8-dione], the pEC50 was 9.10.
